The IC50 is the concentration that gives 50% inhibition. Usually inhibition stands for the percentage by which the read-out fell short of the control.

Molecules are shown by their SMILES. Where two headings read alike, the source gives them in different places.

The experiment deals with TNFα secretion in RAW 264.7 macrophages. As to the kind of experiment: TNFα release assay in RAW 264.7 macrophages stimulated with LPS. Format: cell-based, mouse. An excerpt: The purpose of this assay is to measure the ability of small molecules to inhibit the secretion of TNFα in cultured macrophages stimulated with lipopolysaccharide (LPS). Treatment of macrophages with LPS activates inflammatory cytokine pathways primarily through the TLR4-NFκB signaling axis. […] Dexamethasone, a potent agonist of the glucocorticoid receptor is used a positive control for inhibition of TNFα release. Day 1: Seed RAW 264.7 macrophages into 96 well culture plates. Remove culture media from RAW 264.7 cell growing in a […] tissue culture flask (cells should be at […] confluence) and add 10 ml of warmed complete growth media (DMEM+10% FBS+1× pen/step). The cells are scraped into suspension using a sterile plate scraper and homogenized by pipetting up and down with a 10 ml serological pipette. The cell concentration is determined using a clinical hematoctyometer. Cells are then diluted to 150,000 cells per ml into growth media. The diluted cells are then transferred to a sterile reagent reservoir and 100 μl of cell suspension is pipetted into each well of a 96 well culture plate using a multichannel pipette (15,000 cells/well). Plates are then incubated at 37° C. under normal tissue culture growth conditions (37° C., humidified CO2 chamber). Day 2: The test compound sample plate is prepared. Test compounds are prepared in growth media. Compounds are delivered to media from 1000× stocks in 100% DMSO (e.g. for a 10 μM final concentration of test compound, deliver 2 μl of 10 mM test compound to 2 ml of media). At least 150 μl of 1× compound in media is added to 96 well sample plate. Note: the perimeter wells of the 96 well plate are not used to avoid edge effects. Twelve sample wells are prepared with media plus 0.1% DMSO (these samples will serve as the vehicle controls; LPS-stimulated and non-stimulated. 10 μM dexamethasone is used as a positive control). Culture plates are then returned to the growth incubator for 2 hours. Cells are stimulated afterwards by adding 25 μl of 50 ng/ml LPS is added to every well (except the 6 unstimulated vehicle control wells: final concentration of 10 ng/ml LPS. Plates are returned to growth incubator for 3 hours. Afterwards, 100 μl of media supernatant is removed and transferred to a 96 well v-bottom sample plate. The media supernatant plate is centrifuged for 5 minutes at 1000 rpm in a swing-bucket centrifuge, pelleting any cellular debris that may remain in supernatant. 80 μl of supernatant is removed from sample plate and transferred to a fresh v-bottom 96 well plate. Cell viability is measured using Celltiter-glo kit. By measuring cell viability, a given compound's effects on TNFα secretion can determine whether effects are due to cytotoxicity or to true inhibition of inflammatory signaling. Add 100 μl of Celltiter-glo reagent to each well of the cell culture plate and afterwards measure the luminescence signal (CPS) of the plate using the Victor 5 plate reader (0.3 second read; 60 second plate shaking prior to read). Cell viability of a given compound at a given concentration is computed as follows: Cell viability=CPS Sample/(Average CPS unstimulated controls)*100 […] Follow Invitrogen/Biosource manufacture's protocol for the mouse TNFα ELISA. Chromogen development is typically conducted for 20-30 minutes as described in the manufacturer's protocol. After addition of stop solution, measure OD 450 nm using the Victor 5 plate reader (0.1 second/well scan). Determine the TNFα secretion percent of control. The following formula is used to determine the TNFα secretion percent of control: [formula] For each test compound, TNFα secretion percent of control can be plotted as a function of compound concentration using a four parameter dose-response curve fit equation (XLFIT Model #205): fit=([…]=([…]=(y-fit) […] A sample graph showing the data obtained by using one of the Compounds of the Invention in the procedure described above in Example 6 is shown in FIG. 2.

The mark [1] stands for this setting: RAW264.7, RAW 264.7 macrophages, 10 ng/ml LPS, mouse TNFα ELISA, read-out: TNFα Secretion, IC50 μM.

`CC/C=C\C/C=C\C/C=C\C/C=C\C/C=C\C/C=C\CCC(=O)NC(CC(C)C)C(=O)Nc1ccc(O)c(C(=O)O)c1` (stereo not shown) [III-6, 5-(2-(4Z,7Z,10Z,13Z,16Z,19Z)-docosa-4,7,10,13,16,19-hexaenamido-4-methylpentanamido)-2-hydroxybenzoic acid]: the half-maximal inhibitory concentration (IC50) under setting [1] came out at 65.3 µM. For `CC/C=C\C/C=C\C/C=C\C/C=C\C/C=C\C/C=C\CCC(=O)NC(CC(C)C)C(=O)Oc1ccccc1C(=O)OCC` (stereo not shown) [Compound I-1, ethyl 2-(2-(4Z,7Z,10Z,13Z,16Z,19Z)-docosa-4,7,10,13,16,19-hexaenamido-4-methylpentanoyloxy)benzoate], the inhibition at 6.2 µM (Mus musculus, RAW264.7, read-out: TNFα Secretion, % Inhibition) came out at 24.4%. With `CC/C=C\C/C=C\C/C=C\C/C=C\C/C=C\C/C=C\CCC(=O)O` [DHA, all-cis-4,7,10,13,16,19-docosahexaenoic acid, reference compound], the IC50 under setting [1] is above 100 µM. With `CC/C=C\C/C=C\C/C=C\C/C=C\C/C=C\C/C=C\CCC(=O)NCCNC(=O)c1ccccc1O` [Compound 31, N-(2-(4Z,7Z,10Z,13Z,16Z,19Z)-docosa-4,7,10,13,16,19-hexaenamidoethyl)-2-hydroxybenzamide], the IC50 under setting [1] was 15 µM. `CC/C=C\C/C=C\C/C=C\C/C=C\C/C=C\C/C=C\CCC(=O)Oc1ccccc1C(=O)O` [Ia-1, 2-((4Z,7Z,10Z,13Z,16Z,19Z)-docosa-4,7,10,13,16,19-hexaenoyloxy)benzoic acid]: under setting [1], the IC50 is 69.2 µM. For `CC/C=C\C/C=C\C/C=C\C/C=C\C/C=C\C/C=C\CCC(=O)Nc1ccc(O)c(C(=O)O)c1` [III-1, 5-(4Z,7Z,10Z,13Z,16Z,19Z)-docosa-4,7,10,13,16,19-hexaenamido-2-hydroxybenzoic acid], the 50% inhibitory concentration (IC50) (Mus musculus, RAW264.7, read-out: TNFα Secretion, IC50 μM) worked out at 146 µM. In the case of `Nc1ccc(O)c(C(=O)O)c1` [Compound 5-ASA, 5-aminosalicylic acid, reference compound], the IC50 under setting [1] was above 100 µM.

For the origin of these results see patent US20180325923A1, “FATTY ACID ACETYLATED SALICYLATES AND THEIR USES” (Catabasis Pharmaceuticals, Inc., priority 2008, published 2018).
